In patent publication US20240175029A1, “RNA INHIBITOR FOR INHIBITING HEPATITIS B VIRUS GENE EXPRESSION AND APPLICATION THEREOF” (priority 2021, published 2024):

Key:
HBV HBsAg = assay: Comparison and combined use of Ky-2208 and tenofovir (TDF) in HBV transgenic (HBV-Tg) mice, HBsAg; format: in vivo; conditions: Ky-2208 3 or 9 mpk sc single, TDF 15 mpk po daily, d7-d28
Description: Experimental procedures: 48 HBV-Tg male mice with a body weight of 25-35 g and a week age of 8-13 w, were raised in an animal room that meets the SPF standard, with a temperature of 16-26° C., a humidity of 40-70% and circulating light (12 hours in light and dark respectively), and were free to eat and drink water. The solvent for formulation of the compound was normal saline, and the concentration of the working solution was 0.75 mg/mL. […] The experiment consisted of 6 groups, including one control group ([…]) and 5 administration groups. The drug was administered once on the day of d0, and mice in each group were subcutaneously injected with 0.04 mL/10 g of the corresponding test solution on d0. Whole blood was collected through the orbital venous plexus of mice on d0 before administration and d7, d14, d21 and d28 after administration, and centrifuged at 3000×g for 5 minutes. Supernatant was sampled on d0, d7, d14, d21 and d28 to detect HBV HBsAg.

HBeAg = assay: Ky-22 combined with entecavir or interferon in HepG2.2.15 cells, HBeAg; format: cell-based, HBV; conditions: 72 hours, ETV 0.1-10 μM, IFN-α 10-1000 IU/mL, Ky-22 0.125 μg/mL
Description: (§1) The experiment was conducted in the widely used HepG2.2.15 cell line to evaluate the inhibitory effect of the RNA inhibitor of the present invention in combination with different concentrations of entecavir (ETV) or interferon (IFN-a) on HBV.
(§2) Experimental procedures: DMEM medium containing 10% fetal bovine serum was prepared. Media containing 10 nM RNA inhibitor Ky-22 was prepared from a culture medium. HepG2.2.15 cells were inoculated at a cell density of […] and cultured in the DMEM medium with 10% fetal bovine serum at 37° C. under 5% CO2 for 24 hours, added with the drug for intervention, and incubated for 72 hours. The supernatant was sampled to detect HBsAg, HBeAg and HBV DNA. The relative percentages of HBsAg, HBeAg, and HBV DNA in the sample intervention groups were calibrated by compared with the supernatant of HepG2.2.15 cells without intervention.

HBsAg = assay: Ky-22 combined with entecavir or interferon in HepG2.2.15 cells, HBsAg; format: cell-based, HBV; conditions: 72 hours, ETV 0.1-10 μM, IFN-α 10-1000 IU/mL, Ky-22 0.125 μg/mL
Description: as §1, §2

Compound	reduction of HBsAg level (HBV HBsAg)	inhibitory effect on HBeAg (HBeAg)	inhibitory effect on HBsAg (HBsAg)
CC(C)OC(=O)OCOP(=O)(CO[C@H](C)Cn1cnc2c(N)ncnc21)OCOC(=O)OC(C)C.O=C(O)/C=C/C(=O)O [TDF, Tenofovir]	no inhibitory effect	–	–
C=C1[C@H](CO)[C@@H](O)C[C@@H]1n1cnc2c(=O)[nH]c(N)nc21 [entecavir]	–	no significant inhibitory effect	no significant inhibitory effect
C[C@H](Cn1cnc2c(N)ncnc21)OCP(=O)(O)O [tenofovir (TDF), tenofovir]	does not have the efficacy of reducing HBsAg level	–	–
